Test results from the supplement of paper PMC4862054.
“And” between values parts separate entries of the source, which are not always exact repeats. Equal entries are not always repeated.

Assays:
Settings in all cases: incubation time: 72 h
DU-4475 [1] = test: normalised viability (% of control), CellTiter-Blue; higher = more viable cells (100 = DMSO, 0 = benzethonium chloride kill control)
Procedure: (§1)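 DSRT, CellTiter-Blue viability, 72 h incubation. Signal is normalised to DMSO and benzethonium chloride controls. Value is the normalised response at dose 1.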

MDA-MB-231 = test: as above
Procedure: as §1

HCC1937 = test: as above
Procedure: as §1

CAL-51 [2] = test: as above
Procedure: as §1

BT-549 = test: as above
Procedure: as §1

MDA-MB-436 [3] = test: as above
Procedure: as §1

MDA-MB-453 [4] = test: as above
Procedure: as §1

CAL-85-1 [5] = test: as above
Procedure: as §1

BT-474 [6] = test: as above
Procedure: as §1

Hs578T [7] = test: as above
Procedure: as §1

HCC1143 [8] = test: as above
Procedure: as §1

CAL-120 [9] = test: as above
Procedure: as §1

HCC1599 [10] = test: as above
Procedure: as §1

MFM-223 [11] = test: as above
Procedure: as §1

SK-BR-3 = test: as above
Procedure: as §1

MDA-MB-468 = test: as above
Procedure: as §1

HDQ-P1 = test: as above
Procedure: as §1

CAL-148 [12] = test: as above
Procedure: as §1

DU-4475 [13] = test: normalised viability (% of control), CellTiter-Blue; higher = more viable cells (about 100 = DMSO control)
Procedure: (§2)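 DSRT, CellTiter-Blue viability, 72 h incubation. Signal is normalised to DMSO and benzethonium chloride controls. Value is the normalised response at dose 3.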

CAL-51 [14] = test: as above
Procedure: as §2

MDA-MB-436 [15] = test: as above
Procedure: as §2

MDA-MB-453 [16] = test: as above
Procedure: as §2

BT-474 [17] = test: as above
Procedure: as §2

Hs578T [18] = test: as above
Procedure: as §2

HCC1143 [19] = test: as above
Procedure: as §2

CAL-120 [20] = test: as above
Procedure: as §2

HCC1599 [21] = test: as above
Procedure: as §2

MFM-223 [22] = test: as above
Procedure: as §2

CAL-85-1 [23] = test: normalised viability (% of control), CellTiter-Blue; higher = more viable cells (about 100 = DMSO control)
Procedure, shortened: (§3)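 After 72 h on compound-loaded 384-well plates, breast cancer cell lines received 2.5 µl CellTiter-Blue reagent for 2 h at 37 °C. Fluorescence at 560/590 nm was scaled per plate so that vehicle was 100 and a positive kill control was 0. The value stands for normalised viability at a single listed concentration of the series.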

CAL-148 [24] = test: as above
Procedure, shortened: as §3

`COc1cc2c(Oc3ccc4[nH]c(C)cc4c3F)ncnc2cc1OCCCN1CCCC1` [Cediranib] showed a normalised viability (DU-4475 [1]; 0.1 nM) of 91.1%, a normalised viability (MDA-MB-231; 0.1 nM) of 94.4% and a normalised viability (HCC1937; 0.1 nM) of 113%. It also gave a normalised viability (CAL-51 [2]; 0.1 nM) of 91.3%, a normalised viability (BT-549; 0.1 nM) of 90.5% and a normalised viability (MDA-MB-436 [3]; 0.1 nM) of 94.8%. For the same compound, the normalised viability (MDA-MB-453 [4]; 0.1 nM) was 82.5%, the normalised viability (CAL-85-1 [5]; 0.1 nM) was 107% and the normalised viability (BT-474 [6]; 0.1 nM) was 87.8%. It also gave a normalised viability (Hs578T [7]; 0.1 nM) of 92%, a normalised viability (HCC1143 [8]; 0.1 nM) of 110% and a normalised viability (CAL-120 [9]; 0.1 nM) of 112%. It also gave a normalised viability (HCC1599 [10]; 0.1 nM) of 82.5%, a normalised viability (MFM-223 [11]; 0.1 nM) of 101% and a normalised viability (SK-BR-3; 0.1 nM) of 92.3%. For the same compound, the normalised viability (MDA-MB-468; 0.1 nM) was 95.8%, the normalised viability (HDQ-P1; 0.1 nM) was 81.1% and the normalised viability (CAL-148 [12]; 0.1 nM) was 109%. For the same compound, the normalised viability (DU-4475 [13]; 1 nM) was 97.6%, the normalised viability (CAL-51 [14]; 1 nM) was 87.2% and the normalised viability (MDA-MB-436 [15]; 10 nM) was 92.9%. For the same compound, the normalised viability (MDA-MB-453 [16]; 1 nM) was 78.9%, the normalised viability (BT-474 [17]; 10 nM) was 98.4% and the normalised viability (Hs578T [18]; 10 nM) was 78.1%. For the same compound, the normalised viability (HCC1143 [19]; 10 nM) was 125%, the normalised viability (CAL-120 [20]; 10 nM) was 112% and the normalised viability (HCC1599 [21]; 10 nM) was 95.1%. The normalised viability (MFM-223 [22]; 10 nM) was 78.9%, the normalised viability (CAL-85-1 [23]; 100 nM) was 95.6% and the normalised viability (CAL-148 [24]; 100 nM) was 108%.

In the case of `Cc1ccc(-c2cc(C(F)(F)F)nn2-c2ccc(S(N)(=O)=O)cc2)cc1` [Celecoxib], the normalised viability (DU-4475 [1]; 1 nM) is reported as 89%, the normalised viability (MDA-MB-231; 1 nM) is reported as 117% and the normalised viability (HCC1937; 1 nM) is reported as 96.7%. For the same compound, the normalised viability (CAL-51 [2]; 1 nM) was 91.3%, the normalised viability (BT-549; 1 nM) was 90.7% and the normalised viability (MDA-MB-436 [3]; 1 nM) was 104%. The normalised viability (MDA-MB-453 [4]; 1 nM) was 97.3%, the normalised viability (CAL-85-1 [5]; 1 nM) was 86.8% and the normalised viability (BT-474 [6]; 1 nM) was 76.1%. For the same compound, the normalised viability (Hs578T [7]; 1 nM) was 111%, the normalised viability (HCC1143 [8]; 1 nM) was 90.7% and the normalised viability (CAL-120 [9]; 1 nM) was 78.3%. For the same compound, the normalised viability (HCC1599 [10]; 1 nM) was 79%, the normalised viability (MFM-223 [11]; 1 nM) was 98.5% and the normalised viability (SK-BR-3; 1 nM) was 75.2%. For the same compound, the normalised viability (MDA-MB-468; 1 nM) was 102%, the normalised viability (HDQ-P1; 1 nM) was 114% and the normalised viability (CAL-148 [12]; 1 nM) was 95.4%. It also gave a normalised viability (DU-4475 [13]; 10 nM) of 96.9%, a normalised viability (CAL-51 [14]; 10 nM) of 100% and a normalised viability (MDA-MB-436 [15]; 100 nM) of 92.3%. It also gave a normalised viability (MDA-MB-453 [16]; 10 nM) of 103%, a normalised viability (BT-474 [17]; 100 nM) of 110% and a normalised viability (Hs578T [18]; 100 nM) of 83.1%. It also gave a normalised viability (HCC1143 [19]; 100 nM) of 95.9%, a normalised viability (CAL-120 [20]; 100 nM) of 91.1% and a normalised viability (HCC1599 [21]; 100 nM) of 90.2%. For the same compound, the normalised viability (MFM-223 [22]; 100 nM) was 88.4%, the normalised viability (CAL-85-1 [23]; 1000 nM) was 69.9% and the normalised viability (CAL-148 [24]; 1000 nM) was 75.5%.

With `Nc1ncn([C@H]2C[C@H](O)[C@@H](CO)O2)c(=O)n1` [Decitabine] the normalised viability (DU-4475 [1]; 1 nM) was 102% and 101%, the normalised viability (MDA-MB-231; 1 nM) was 111% and 91.6% and the normalised viability (HCC1937; 1 nM) was 95.8% and 102%. For the same compound, the normalised viability (CAL-51 [2]; 1 nM) was 113% and 104%, the normalised viability (BT-549; 1 nM) was 110% and 109% and the normalised viability (MDA-MB-436 [3]; 1 nM) was 94.8% and 84.5%. The normalised viability (MDA-MB-453 [4]; 1 nM) was 93% and 107%, the normalised viability (CAL-85-1 [5]; 1 nM) was 81.4% and 95.5% and the normalised viability (BT-474 [6]; 1 nM) was 98.4% and 79.8%. For the same compound, the normalised viability (Hs578T [7]; 1 nM) was 90.4% and 111%, the normalised viability (HCC1143 [8]; 1 nM) was 88.1% and 95.7% and the normalised viability (CAL-120 [9]; 1 nM) was 84.8% and 82.6%. The normalised viability (HCC1599 [10]; 1 nM) was 107% and 109%, the normalised viability (MFM-223 [11]; 1 nM) was 82.4% and 104% and the normalised viability (SK-BR-3; 1 nM) was 82% and 93.2%. The normalised viability (MDA-MB-468; 1 nM) was 96.6% and 98.9%, the normalised viability (HDQ-P1; 1 nM) was 114% and 108% and the normalised viability (DU-4475 [13]; 10 nM) was 98.1% and 117%. The normalised viability (CAL-51 [14]; 10 nM) was 112% and 102%, the normalised viability (MDA-MB-436 [15]; 100 nM) was 89.6% and 90.8% and the normalised viability (MDA-MB-453 [16]; 10 nM) was 90.9% and 113%. For the same compound, the normalised viability (BT-474 [17]; 100 nM) was 87.1% and 95.7%, the normalised viability (Hs578T [18]; 100 nM) was 85.2% and 99.2% and the normalised viability (HCC1143 [19]; 100 nM) was 82.4% and 79.1%. The normalised viability (CAL-120 [20]; 100 nM) was 85.2% and 84.4%, the normalised viability (HCC1599 [21]; 100 nM) was 108% and 99.9% and the normalised viability (MFM-223 [22]; 100 nM) was 79% and 95.3%. The normalised viability (CAL-85-1 [23]; 1000 nM) was 78.2% and 89.6% and the normalised viability (CAL-148 [24]; 1000 nM) was 75.2% and 75%.
